Laboratory results taken from patent US20080090805A1, “CB-1 MODULATING COMPOUNDS AND THEIR USE” (ACADIA PHARMACEUTICALS INC., priority 2005, published 2008).

target: CB1 (mutant) (Homo sapiens, UniProt P21554); assay: R-SAT functional receptor assay, CB1 (mutant, truncated after amino acid 417); assay type: cell-based; conditions: Appendix A; R-SAT CB1; receptor form (mutant or wild-type) not stated
Sequence (P21554 1-417, change not shown): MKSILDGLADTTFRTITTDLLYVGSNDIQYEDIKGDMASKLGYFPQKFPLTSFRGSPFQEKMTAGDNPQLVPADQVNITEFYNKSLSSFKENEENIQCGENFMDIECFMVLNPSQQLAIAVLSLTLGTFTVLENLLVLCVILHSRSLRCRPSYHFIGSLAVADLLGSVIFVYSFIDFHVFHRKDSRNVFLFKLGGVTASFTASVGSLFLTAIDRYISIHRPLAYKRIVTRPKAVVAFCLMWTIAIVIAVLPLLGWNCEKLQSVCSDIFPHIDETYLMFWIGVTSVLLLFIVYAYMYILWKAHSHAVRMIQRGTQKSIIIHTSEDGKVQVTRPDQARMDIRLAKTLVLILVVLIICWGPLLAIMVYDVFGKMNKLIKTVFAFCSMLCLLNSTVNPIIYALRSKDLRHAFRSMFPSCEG

pIC50 | SMILES
1.0 | CCONC(=O)c1ccc2c(c1)N=C(c1ccccc1Cl)c1ccccc1S2
1.0 | CONC(=O)c1ccc2c(c1)N=C(c1ccc(Cl)cc1Cl)c1ccccc1S2

same assay, conditions: Appendix A; R-SAT CB1; receptor form (mutant or wild-type) not stated; read-out: pIC50 (converted)

IC50 [nM] | SMILES
12.6 | COCCNC(=O)c1ccc2c(c1)N=C(c1ccc(Cl)s1)c1ccccc1S2 [drawing 819]
25.1 | O=C(NCCc1ccccc1)c1ccc2c(c1)N=C(c1ccccc1)c1ccccc1S2 [drawing 1023]
20 | CC(CNC(=O)c1ccc2c(c1)N=C(c1ccc(Cl)cc1)c1ccccc1S2)c1ccccc1 (stereo not shown) [drawing 933]
10 | Cc1cccc(C2=Nc3cc(C(=O)NCC(C)C)ccc3Sc3ccccc32)n1 [drawing 809]
20 | Cc1ccc(CNC(=O)c2ccc3c(c2)N=C(c2sccc2C)c2ccccc2S3)o1 [drawing 953]
316 | Cc1ccc(N2CCN(C(=O)c3ccc4c(c3)N=C(c3ccc(Cl)cc3)c3ccccc3S4)CC2)c(C)c1 [drawing 970]
25.1 | O=C(NCCc1ccccn1)c1ccc2c(c1)N=C(c1cccc(Cl)c1)c1ccccc1S2 [drawing 999]
12.6 | O=C(NCCc1ccccc1)c1ccc2c(c1)N=C(c1ccc(F)cc1)c1ccccc1S2 [drawing 839]
7.94 | CC(CNC(=O)c1ccc2c(c1)N=C(c1ccccc1)c1ccccc1S2)c1ccccc1 (stereo not shown) [drawing 729]
31.6 | CCCC1=Nc2cc(C(=O)NCCc3cc(OC)ccc3OC)ccc2Sc2ccccc21 [drawing 1051]
12.6 | O=C(NCCc1cccnc1)c1ccc2c(c1)N=C(c1cccc(Cl)c1)c1ccccc1S2 [drawing 857]
39.8 | C[C@@H]1CCC[C@H](C)N1NC(=O)c1ccc2c(c1)N=C(c1ccccc1F)c1ccccc1S2 [drawing 1149]
15.8 | O=C(NCCc1ccc(Cl)cc1)c1ccc2c(c1)N=C(C1CCCCC1)c1ccccc1S2 [drawing 889]
31.6 | O=C(NC1CCCCC1)c1ccc2c(c1)N=C(c1ccc(F)cc1)c1ccccc1S2 [drawing 1065]

More lines, now with the values behind:

SMILES | IC50 [nM]
CCCC1=Nc2cc(C(=O)NCCCN3CCN(c4ccccc4F)CC3)ccc2Sc2ccccc21 | 398
CCCCC1=Nc2cc(C(=O)NN3CCCCC3)ccc2Sc2ccccc21 | 316
CCCC1=Nc2cc(C(=O)NCC(OCC)OCC)ccc2Sc2ccccc21 | 39.8
Cc1ccsc1C1=Nc2cc(C(=O)NC3CCCCC3)ccc2Sc2ccccc21 [drawing 572] | 50.1
CCOC(=O)c1ccc(C2=Nc3cc(C(=O)NNC(=O)Cc4ccccc4)ccc3Sc3ccccc32)cc1 | 3160
CCOC(=O)N1CCC(NC(=O)c2ccc3c(c2)N=C(c2ccc(Cl)cc2)c2ccccc2S3)CC1 [drawing 676] | 63.1
CCCC1=Nc2cc(C(=O)NCCCSC3CCCCC3)ccc2Sc2ccccc21 | 158
O=C(NN1CCOCC1)c1ccc2c(c1)N=C(N1CCCCC1)c1ccccc1S2 | 794
O=C(NCCCC(F)(F)F)c1ccc2c(c1)N=C(c1ccc(Cl)cc1)c1ccccc1S2 [drawing 601] | 3.98
CON(C)C(=O)c1ccc2c(c1)N=C(c1ccc(Cl)s1)c1ccccc1S2 | 501
CCCCN(CCCNC(=O)c1ccc2c(c1)N=C(CCC)c1ccccc1S2)Cc1ccccc1 | 100
CCOCCNC(=O)c1ccc2c(c1)N=C(c1ccc(Cl)cc1)c1ccccc1S2 [drawing 604] | 50.1
O=C(NC1CCCC1)c1ccc2c(c1)N=C(c1cccc(Cl)c1)c1ccccc1S2 [drawing 702] | 79.4
CCCC1=Nc2cc(C(=O)NCCN3CCN(c4cccc(C)c4C)CC3)ccc2Sc2ccccc21 | 3160
CCCC1=NC2=C(CCC(C(=O)NCCc3ccc(OCC)cc3)=C2)Sc2ccccc21 | 158
O=C(NN1CCCCCC1)c1ccc2c(c1)N=C(c1cccc(Cl)c1)c1ccccc1S2 [drawing 721] | 7.94
Cc1csc(CNC(=O)c2ccc3c(c2)N=C(c2cccc(F)c2)c2ccccc2S3)c1 [drawing 557] | 2.51
CONC(=O)c1ccc2c(c1)N=C(c1ccc(Cl)s1)c1ccccc1S2 | 398
CCCC1=Nc2cc(C(=O)N3CCC(N4CCCCC4)CC3)ccc2Sc2ccccc21 | 2510

same assay, conditions: Appendix A; R-SAT CB1; receptor form not stated; relative to SR141716 (100%)

% Inhibition [%] | SMILES
105 | CCOC(=O)N1CCC(NC(=O)c2ccc3c(c2)N=C(c2ccc(Cl)cc2)c2ccccc2S3)CC1 [drawing 676]
91 | O=C(NCCc1ccccn1)c1ccc2c(c1)N=C(c1cccc(Cl)c1)c1ccccc1S2 [drawing 999]
105 | O=C(NN1CCCCCC1)c1ccc2c(c1)N=C(c1cccc(Cl)c1)c1ccccc1S2 [drawing 721]

same assay, conditions: Appendix A; R-SAT CB1; receptor form not stated; relative to SR141716 (100%); read-out: % Inhibition

Emax [%] | SMILES
103 | COCCNC(=O)c1ccc2c(c1)N=C(c1ccc(Cl)s1)c1ccccc1S2 [drawing 819]
106 | O=C(NCCc1ccccc1)c1ccc2c(c1)N=C(c1ccccc1)c1ccccc1S2 [drawing 1023]
106 | CC(CNC(=O)c1ccc2c(c1)N=C(c1ccc(Cl)cc1)c1ccccc1S2)c1ccccc1 (stereo not shown) [drawing 933]
82 | Cc1cccc(C2=Nc3cc(C(=O)NCC(C)C)ccc3Sc3ccccc32)n1 [drawing 809]
79 | Cc1ccc(CNC(=O)c2ccc3c(c2)N=C(c2sccc2C)c2ccccc2S3)o1 [drawing 953]
94 | Cc1ccc(N2CCN(C(=O)c3ccc4c(c3)N=C(c3ccc(Cl)cc3)c3ccccc3S4)CC2)c(C)c1 [drawing 970]
103 | O=C(NCCc1ccccc1)c1ccc2c(c1)N=C(c1ccc(F)cc1)c1ccccc1S2 [drawing 839]
101 | CC(CNC(=O)c1ccc2c(c1)N=C(c1ccccc1)c1ccccc1S2)c1ccccc1 (stereo not shown) [drawing 729]
98 | CCCC1=Nc2cc(C(=O)NCCc3cc(OC)ccc3OC)ccc2Sc2ccccc21 [drawing 1051]
100 | O=C(NCCc1cccnc1)c1ccc2c(c1)N=C(c1cccc(Cl)c1)c1ccccc1S2 [drawing 857]
103 | C[C@@H]1CCC[C@H](C)N1NC(=O)c1ccc2c(c1)N=C(c1ccccc1F)c1ccccc1S2 [drawing 1149]
104 | O=C(NCCc1ccc(Cl)cc1)c1ccc2c(c1)N=C(C1CCCCC1)c1ccccc1S2 [drawing 889]
111 | O=C(NC1CCCCC1)c1ccc2c(c1)N=C(c1ccc(F)cc1)c1ccccc1S2 [drawing 1065]

More lines, now with the values behind:

SMILES | Emax [%]
CCCC1=Nc2cc(C(=O)NCCCN3CCN(c4ccccc4F)CC3)ccc2Sc2ccccc21 | 120
CCCCC1=Nc2cc(C(=O)NN3CCCCC3)ccc2Sc2ccccc21 | 82
CCCC1=Nc2cc(C(=O)NCC(OCC)OCC)ccc2Sc2ccccc21 | 107
Cc1ccsc1C1=Nc2cc(C(=O)NC3CCCCC3)ccc2Sc2ccccc21 [drawing 572] | 88
CCOC(=O)c1ccc(C2=Nc3cc(C(=O)NNC(=O)Cc4ccccc4)ccc3Sc3ccccc32)cc1 | 61
CCCC1=Nc2cc(C(=O)NCCCSC3CCCCC3)ccc2Sc2ccccc21 | 95
O=C(NN1CCOCC1)c1ccc2c(c1)N=C(N1CCCCC1)c1ccccc1S2 | 99
O=C(NCCCC(F)(F)F)c1ccc2c(c1)N=C(c1ccc(Cl)cc1)c1ccccc1S2 [drawing 601] | 105
CON(C)C(=O)c1ccc2c(c1)N=C(c1ccc(Cl)s1)c1ccccc1S2 | 55
CCCCN(CCCNC(=O)c1ccc2c(c1)N=C(CCC)c1ccccc1S2)Cc1ccccc1 | 99
CCOCCNC(=O)c1ccc2c(c1)N=C(c1ccc(Cl)cc1)c1ccccc1S2 [drawing 604] | 92
O=C(NC1CCCC1)c1ccc2c(c1)N=C(c1cccc(Cl)c1)c1ccccc1S2 [drawing 702] | 96
CCONC(=O)c1ccc2c(c1)N=C(c1ccccc1Cl)c1ccccc1S2 | 19
CONC(=O)c1ccc2c(c1)N=C(c1ccc(Cl)cc1Cl)c1ccccc1S2 | -27
CCCC1=Nc2cc(C(=O)NCCN3CCN(c4cccc(C)c4C)CC3)ccc2Sc2ccccc21 | 84
CCCC1=NC2=C(CCC(C(=O)NCCc3ccc(OCC)cc3)=C2)Sc2ccccc21 | 102
Cc1csc(CNC(=O)c2ccc3c(c2)N=C(c2cccc(F)c2)c2ccccc2S3)c1 [drawing 557] | 96
CONC(=O)c1ccc2c(c1)N=C(c1ccc(Cl)s1)c1ccccc1S2 | 66
CCCC1=Nc2cc(C(=O)N3CCC(N4CCCCC4)CC3)ccc2Sc2ccccc21 | 128
